Reference: ChEMBL document CHEMBL1147712, “Triketoacid inhibitors of HIV-integrase: a new chemotype useful for probing the integrase pharmacophore” (Bioorg Med Chem Lett, 2006)
Active and inactive are the calls of the source. The rule behind the calls is not given here.

Key:
[1] = molecular target: T1, Human immunodeficiency virus type 1 integrase (Human immunodeficiency virus 1, UniProt Q7ZJM1)
[2] = molecular target: T1, Human immunodeficiency virus type 1 integrase; remark: listed apart in the source
Enterovirus = experiment: Antiviral activity against Rhinovirus; type: functional, organism-based
[3] = molecular target: T1, Human immunodeficiency virus type 1 integrase; experiment: Inhibition of HIV1 recombinant integrase in pre-integration complex
[4] = test system: Human immunodeficiency virus 1; experiment: Antiviral activity against HIV1 T66I, L172F mutant; type: functional, organism-based
Enterobacteria phage T3 = experiment: Inhibition of T3 polymerase
[5] = test system: Bovine viral diarrhea virus 1; experiment: Antiviral activity against BVDV; type: functional, organism-based
[6] = test system: Human immunodeficiency virus 1; experiment: Antiviral activity against wild-type HIV1 NL4-3; type: functional, organism-based; conditions: Human immunodeficiency virus 1, NL4-3
[7] = test system: Respiratory syncytial virus; experiment: Antiviral activity against RSV; type: functional, organism-based
[8] = molecular target: Human immunodeficiency virus type 1 reverse transcriptase (Human immunodeficiency virus 1) (UniProt Q72547); experiment: Inhibition of HIV-RT
[9] = test system: Human immunodeficiency virus 1; experiment: Antiviral activity against HIV1 V151A, V165I mutant; type: functional, organism-based
[10] = molecular target: Genome polyprotein (Bovine viral diarrhea virus (strain CP7) (BVDV) (Mucosal diseasevirus)) (UniProt Q96662); experiment: Inhibition of BVDV polymerase; conditions: Bovine viral diarrhea virus 1
[11] = test system: Human immunodeficiency virus 1; experiment: Antiviral activity against HIV1 NL4-3 T66I mutant; type: functional, organism-based; conditions: Human immunodeficiency virus 1, NL4-3
[12] = molecular target: Human immunodeficiency virus type 1 protease (Human immunodeficiency virus 1) (UniProt Q72874); experiment: Inhibition of HIV protease
[13] = molecular target: DNA polymerase I (Escherichia coli) (UniProt P00582); experiment: Inhibition of Klenow fragment
[14] = test system: Human immunodeficiency virus 1; experiment: Antiviral activity against HIV1; type: functional, organism-based

SMILES | IC50 [1] [µM] | other results
O=C(CC(=O)C(=O)O)CC(=O)c1cccc(Cl)c1 | 8 | 
O=C(CC(=O)C(=O)O)CC(=O)c1ccccc1 | 80 | 
O=C(O)C(=O)/C=C(\O)c1c[nH]c2ccc(Cl)cc12 | 0.4 | IC50 [2]: 0.08 µM
O=C(CC(=O)c1cccn1Cc1ccc(F)cc1)c1nnn[nH]1 | > 125 | 
O=C(CCc1ccccc1Cl)CC(=O)C(=O)O | 9 | 
O=C(CC(=O)C(=O)O)CC(=O)c1cccc2ccccc12 | 0.6 | 
O=C(/C=C(\O)C(=O)O)CCc1ccccc1Cl | 26 | 
O=C(/C=C(\O)C(=O)O)CCc1ccc(Cl)c(Cl)c1 |  | IC50 [2]: 0.01 µM
O=C(CC(=O)C(=O)O)CC(=O)c1ccccc1Cl | 1 | Activity (Enterovirus): inactive; IC50 [3]: 0.6 µM; EC50 [4]: > 200 µM; Activity (Enterobacteria phage T3): inactive; Activity [5]: inactive; EC50 [6]: 55 µM; Activity [7]: inactive; Activity [8]: inactive; EC50 [9]: > 200 µM; Activity [10]: inactive; EC50 [11]: > 200 µM; Activity [12]: inactive; Activity [13]: inactive; EC50 [14]: 120 µM; IC50 [2]: 0.2 µM
O=C(CC(=O)C(=O)O)CC(=O)c1ccccc1C(F)(F)F | 6 | 

Further lines, with some results ahead:

IC50 [1] [µM] | SMILES | other results
> 300 | O=C(CC(=O)C(=O)O)CC(=O)c1cccnc1 | 
7 | O=C(CC(=O)C(=O)O)CC(=O)c1ccccc1OCc1ccccc1 | 
125 | O=C(CC(=O)c1nnn[nH]1)CC(=O)c1ccccc1Cl | 
5 | O=C(/C=C(\O)C(=O)O)CCc1ccccc1Br | 
100 | O=C(CC(=O)C(=O)O)CC(=O)c1ccccn1 | 
6 | O=C(CC(=O)C(=O)O)CC(=O)c1ccc2ccccc2c1 | 
30 | O=C(/C=C(\O)C(=O)O)CCc1ccccc1 | 
4 | COc1ccccc1C(=O)CC(=O)CC(=O)C(=O)O | 
2 | O=C(CC(=O)C(=O)O)CC(=O)c1ccc(-c2ccccc2)cc1 | 
3 | O=C(CC(=O)C(=O)O)CC(=O)c1ccccc1F | 
